Each block holds one molecule with its values, some of them ahead of it. Active and inactive are the calls of the source. No cut-off for these calls is given here.
How the values were obtained:
Arginase-1 [1] = biological target: T1, Arginase-1 (Bos taurus, UniProt Q2KJ64); test: Inhibition of bovine Arg-1 using L-ARG as substrate incubated for 60 mins by OPA colorimetric analysis
T1 sequence (Q2KJ64 whole entry): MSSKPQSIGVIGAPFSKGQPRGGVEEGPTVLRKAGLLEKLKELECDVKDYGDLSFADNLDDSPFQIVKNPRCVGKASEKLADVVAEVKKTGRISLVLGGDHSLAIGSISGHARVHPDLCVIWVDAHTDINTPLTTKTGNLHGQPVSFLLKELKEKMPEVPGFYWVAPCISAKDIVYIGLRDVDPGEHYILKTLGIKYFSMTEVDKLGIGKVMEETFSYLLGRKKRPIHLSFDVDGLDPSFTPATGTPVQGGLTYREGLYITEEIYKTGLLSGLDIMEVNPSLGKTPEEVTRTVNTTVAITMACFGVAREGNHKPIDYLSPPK

[2] = Antioxidant activity assessed as DPPH radical scavenging activity incubated for 30 mins under dark condition by absorbance based analysis; type: functional
Arginase-1 [3] = biological target: T2, Arginase-1 (Homo sapiens, UniProt P05089); test: Inhibition of recombinant human Arg-1 using L-ARG as substrate incubated for 60 mins by OPA colorimetric analysis
T2 sequence (P05089 whole entry): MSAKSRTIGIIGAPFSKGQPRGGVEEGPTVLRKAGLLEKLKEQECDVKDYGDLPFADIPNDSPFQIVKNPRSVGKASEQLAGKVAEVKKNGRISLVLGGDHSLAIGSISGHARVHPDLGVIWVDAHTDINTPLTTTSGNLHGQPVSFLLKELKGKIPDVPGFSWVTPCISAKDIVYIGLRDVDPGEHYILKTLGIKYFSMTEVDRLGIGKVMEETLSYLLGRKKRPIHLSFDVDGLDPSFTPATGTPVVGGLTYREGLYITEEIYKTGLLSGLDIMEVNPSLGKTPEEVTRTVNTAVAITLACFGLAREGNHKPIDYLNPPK

[4] = Antioxidant activity assessed as ABTS radical scavenging activity incubated for 12 hrs under dark condition by absorbance based plate reader analysis; type: functional
Arginase-1 (Bos taurus) = biological target: T3, Arginase-1 (Bos taurus) (UniProt Q2KJ64); test: Potency index, ratio of piceatannol IC50 to test compound IC50 for inhibition of bovine Arg-1 using L-ARG as substrate
T3 sequence (whole entry): T1 sequence (Q2KJ64 whole entry)

[5] = Stability of the compound in aqueous solution at 20 mM measured at <= 2 hrs relative to control; type: physicochemical; settings: read-out: Stability
[6] = Antifibrotic activity against TGF-beta induced human Red-COLA1 cells assessed as reduction in collagen deposition rate at 10 uM measured after 7 days by sirius red staining based microplate reader analysis (reference value: 130.6%); type: functional; parameters: scale not given: the % may be the effect or the level left; settings: time 7 day
Red-COLA1 [7] = test: Antifibrotic activity against TGF-beta induced human Red-COLA1 cells assessed as reduction in procollagen type-1 synthesis at 10 uM incubated for 48 hrs by ELISA (reference value: 130.6 ng/ml); type: functional, cell-based
[8] = Cytotoxicity against human Red-COLA1 cells assessed as cell viability at 10 uM incubated for 24 hrs by MTT assay relative to control; type: functional; settings: read-out: Activity
[9] = Antifibrotic activity against TGF-beta induced human Red-COLA1 cells assessed as reduction in collagen deposition rate at 5 uM measured after 7 days by sirius red staining based microplate reader analysis (reference value: 130.6%); type: functional; parameters: scale not given: the % may be the effect or the level left; settings: time 7 day
[10] = Cytotoxicity against human Red-COLA1 cells assessed as cell viability at 5 uM incubated for 24 hrs by MTT assay relative to control; type: functional; settings: read-out: Activity
[11] = (§1) Antifibrotic activity against TGF-beta induced human Red-COLA1 cells assessed as reduction in procollagen type-1 synthesis at 5 uM incubated for 48 hrs by ELISA (reference value: 130.6 ng/ml); type: functional
[12] = Stability of the compound in aqueous solution at 20 mM measured after 4 hrs; type: physicochemical; settings: buffer, 20000 µM
Red-COLA1 [13] = test: as §1; type: functional

SMILES: O=C(Nc1ccc(O)cc1)c1ccc(O)c(O)c1
IC50 (Arginase-1 [1]): 2600 µM

SMILES: O=c1c(O)c(-c2ccc(O)c(O)c2)oc2cc(O)cc(O)c12 [QUERCETIN]
EC50 [2]: 16 µM
EC50 [4]: 10 µM

SMILES: Oc1ccc(/N=C(/Nc2ccc(O)c(O)c2)c2ccc(O)c(O)c2)cc1O
IC50 (Arginase-1 [1]): 171 µM

SMILES: Nc1ccc(NC(=O)c2ccc(O)c(O)c2)cc1
IC50 (Arginase-1 [1]): 170 µM

SMILES: Oc1ccc(C(=S)Nc2ccccc2)cc1O
IC50 (Arginase-1 [1]): 124 µM

SMILES: O=C(c1ccc(O)c(O)c1)N(CCCCO)c1ccc(O)c(O)c1
IC50 (Arginase-1 [1]): 88 µM

SMILES: Nc1cccc(NC(=S)c2ccc(O)c(O)c2)c1
IC50 (Arginase-1 [1]): 116 µM

SMILES: O=S(=O)(Nc1ccc(O)c(O)c1)c1cc(O)ccc1O
IC50 (Arginase-1 [1]): > 500 µM

SMILES: O=S(=O)(Nc1ccc(O)c(O)c1)c1ccc(O)c(O)c1
Ratio IC50 (Arginase-1 (Bos taurus)): 6
IC50 (Arginase-1 [1]): 130 µM

SMILES: Nc1cccc(C(=S)Nc2ccc(O)c(O)c2)c1
IC50 (Arginase-1 [1]): 161 µM

SMILES: O=C(c1ccc(O)c(O)c1)N(CCO)c1ccc(O)c(O)c1
IC50 (Arginase-1 [1]): 228 µM

SMILES: O=C(c1ccc(O)c(O)c1)N(CCCCCO)c1ccc(O)c(O)c1
IC50 (Arginase-1 [1]): 137 µM

SMILES: O=C(Nc1cccc(O)c1)c1ccc(O)c(O)c1
IC50 (Arginase-1 [1]): 770 µM

SMILES: CN(C(=O)c1ccc(O)c(O)c1)c1ccc(O)c(O)c1
IC50 (Arginase-1 [1]): 222 µM

SMILES: O/N=C(/Nc1ccc(O)c(O)c1)c1ccc(O)c(O)c1
EC50 [2]: 16 µM
EC50 [4]: 12 µM
IC50 (Arginase-1 [1]): 115 µM

SMILES: O=C(Nc1cc(O)cc(O)c1)c1ccc(O)c(O)c1
IC50 (Arginase-1 [1]): 202 µM

SMILES: Oc1ccc(NC(=S)c2ccc(O)c(O)c2)cc1
IC50 (Arginase-1 [1]): 95 µM

SMILES: O=C(Nc1ccccc1O)c1ccc(O)c(O)c1
IC50 (Arginase-1 [1]): 3100 µM

SMILES: O=C(c1ccc(O)c(O)c1)N(CCCO)c1ccc(O)c(O)c1
IC50 (Arginase-1 [1]): 148 µM

SMILES: Oc1ccc(/C=C/c2ccccc2)cc1O [(E)-3,4-STILBENDIOL]
IC50 (Arginase-1 [1]): 97 µM

SMILES: O=S(=O)(Nc1ccc(O)c(O)c1)c1cccc(O)c1
IC50 (Arginase-1 [1]): 325 µM

SMILES: Cc1c(C)c2c(c(C)c1O)CCC(C)(C(=O)O)O2 (stereo not given) [TROLOX]
EC50 [2]: 29 µM
EC50 [4]: 24 µM

SMILES: O=C(Nc1ccccc1)c1ccc(O)c(O)c1
IC50 (Arginase-1 [1]): 1000 µM

SMILES: Nc1cccc(NC(=O)c2ccc(O)c(O)c2)c1
IC50 (Arginase-1 [1]): 440 µM

Now from value to molecule, other results behind:

EC50 [2]: 14 µM
IC50 (Arginase-1 [3]): 38 µM
EC50 [4]: 10 µM
IC50 (Arginase-1 [1]): 13 µM
SMILES: Oc1ccc(C(=S)Nc2ccc(O)c(O)c2)cc1

EC50 [2]: 12 µM
EC50 [4]: 12 µM
IC50 (Arginase-1 [1]): 20 µM
SMILES: O=C(Nc1ccc(O)c(O)c1)c1ccc(O)c(O)c1

IC50 (Arginase-1 [1]): 63 µM
SMILES: Oc1ccc(NC(=S)c2ccccc2)cc1O

EC50 [2]: 23 µM
EC50 [4]: 5 µM
IC50 (Arginase-1 [1]): 34 µM
SMILES: O=C(Nc1ccc(O)c(O)c1)c1cc(O)cc(O)c1

IC50 (Arginase-1 [1]): 59 µM
SMILES: Oc1ccc(O)c(/C=C/c2ccc(O)c(O)c2)c1

IC50 (Arginase-1 [1]): 41 µM
SMILES: Oc1cccc(NC(=S)c2ccc(O)c(O)c2)c1

IC50 (Arginase-1 [1]): 69 µM
SMILES: Oc1ccc(/C=C/c2ccc(O)c(O)c2)cc1O

remaining at 2 h, 20000 µM [5]: 70%
EC50 [2]: 37 µM
IC50 (Arginase-1 [3]): 28 µM
EC50 [4]: 13 µM
IC50 (Arginase-1 [1]): 20 µM
SMILES: Oc1cc(O)cc(/C=C/c2ccc(O)c(O)c2)c1 [PICEATANNOL]
Activity [6]: 113.5%
Activity (Red-COLA1 [7]): inactive
viability at 10 µM [8]: 100%

IC50 (Arginase-1 [1]): 65 µM
SMILES: O=C(Nc1ccc(O)c(O)c1)c1cc(O)c(O)c(O)c1

remaining at 2 h, 20000 µM [5]: 70%
EC50 [2]: 9 µM
Ratio IC50 (Arginase-1 (Bos taurus)): 2
IC50 (Arginase-1 [3]): 55 µM
EC50 [4]: 12 µM
IC50 (Arginase-1 [1]): 9 µM
SMILES: Oc1ccc(NC(=S)c2ccc(O)c(O)c2)cc1O
Activity [9]: 100.8%
viability at 5 µM [10]: 92.8%
Activity [11]: 87.5 ng/mL

EC50 [2]: 17 µM
IC50 (Arginase-1 [3]): 32 µM
EC50 [4]: 12 µM
IC50 (Arginase-1 [1]): 20 µM
Stability [12]: Stable
SMILES: Oc1cc(O)cc(C(=S)Nc2ccc(O)c(O)c2)c1
Activity [9]: 133.1%
viability at 5 µM [10]: 100%
Activity (Red-COLA1 [13]): inactive

EC50 [2]: 10 µM
IC50 (Arginase-1 [3]): 28 µM
EC50 [4]: 12 µM
IC50 (Arginase-1 [1]): 16 µM
SMILES: Oc1cccc(C(=S)Nc2ccc(O)c(O)c2)c1

IC50 (Arginase-1 [3]): 9 µM
IC50 (Arginase-1 [1]): 17 µM
SMILES: N[C@@H](CSCCB(O)O)C(=O)O
Activity [6]: 130.6%
Activity (Red-COLA1 [7]): inactive
viability at 10 µM [8]: 96.7%

IC50 (Arginase-1 [1]): 66 µM
SMILES: Oc1cc(O)cc(NC(=S)c2ccc(O)c(O)c2)c1

IC50 (Arginase-1 [1]): 69 µM
SMILES: O=C(Nc1ccc(O)c(O)c1)c1cccc(O)c1O

Reference: ChEMBL document CHEMBL6103595, “Synthesis and evaluation of piceatannol derivatives as novel arginase inhibitors with radical scavenging activity and their potential for collagen reduction in dermal fibroblasts” (Eur J Med Chem, 2025)
